Laboratory results: BigSolDB 2.1

CC(=O)Oc1ccccc1C(=O)O
solubility (mole fraction)
Conditions	283.15 K	288.15 K	293.15 K	298.15 K	303.15 K	308.15 K	313.15 K	318.15 K	323.15 K
in acetone	0.0629	0.0733	0.0821	0.0931	0.105	0.113	0.126	0.138	0.157
in ethanol	0.0334	0.0426	0.0515	0.0614	0.074	0.0876	0.102	0.122	0.141
in ethyl acetate	0.0267	0.0314	0.0361	0.0413	0.0471	0.0543	0.0651	0.0738	0.0849
in n-propanol	0.0254	0.0316	0.037	0.0473	0.0576	0.0687	0.0816	0.0971	0.118
